Results as given in patent EP4741383A1, “COMPOUND AND USE THEREOF AS ANTI-CANCER DRUG” (Tyligand Bioscience (Shanghai) Limited, priority 2023, dated 2025).

Assays:
[1] = molecular target: T1, SHP2 enzyme (catalytic domain, amino acid sequence 224-528) (Homo sapiens, UniProt Q06124); assay: SHP2 enzyme inhibition assay (DiFMUP substrate, fluorescence); assay type: biochemical; settings: for IC50: SHP2 catalytic domain, DiFMUP substrate, 30 min pre-incubation, read-out: S HP2 I C50; for SHP2 IC50 times lower than control compound 11a-1: relative to 11a-1, IC50 = 0.108 µM
T1 construct: purchased GenScript
T1 sequence (Q06124 224-528): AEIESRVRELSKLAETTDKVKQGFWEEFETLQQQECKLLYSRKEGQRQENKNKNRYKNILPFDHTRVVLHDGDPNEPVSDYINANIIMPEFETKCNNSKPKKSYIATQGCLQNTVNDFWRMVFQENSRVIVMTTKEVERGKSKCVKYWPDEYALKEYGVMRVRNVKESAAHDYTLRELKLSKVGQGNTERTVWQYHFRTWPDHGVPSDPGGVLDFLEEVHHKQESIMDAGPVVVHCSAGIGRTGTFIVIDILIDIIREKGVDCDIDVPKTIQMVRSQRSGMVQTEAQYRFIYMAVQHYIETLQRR
In short: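 SHP2 catalytic domain (aa 224-528) preincubated 30 min at room temperature with compounds (10-point 3-fold series) in HEPES pH 7.2 buffer with NaCl, EDTA, DTT, BSA, Brij35. DiFMUP from 50 µM working solution added, 5 min reaction; fluorescence 340/450 nm; IC50 from nonlinear dose-response fit.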

KYSE520 = assay: CellTiter-Glo cell proliferation inhibition, KYSE520; assay type: cell-based, human; settings: Homo sapiens, KYSE-520; KYSE520 cells, 120 hours, CellTiter-Glo

Compound | IC50 [1] [nM] | SHP2 IC50 times lower than control compound 11a-1 [1] | IC50 (KYSE520) [µM]
CC1(O)CC2(CCN(c3ccc(NC(=O)C(=O)Nc4ccc(-c5cc6cc(F)c(-c7nnn[nH]7)cc6n5C5(C)CCC5)cc4)cc3)CC2)C1 [Example 95] | 61 |  | 0.113
CC1(n2c(-c3ccc(NC(=O)C(=O)Nc4ccc(N5CCC6(CC5)CC(CO)C6)cc4)cc3)cc3cc(F)c(-c4nnn[nH]4)cc32)CCC1 [Example 97] | 105 |  | 0.095
COC1CC(n2c(-c3ccc(NC(=O)C(=O)Nc4ccc(N5CCC6(CCC(O)C6)CC5)cc4)cc3)cc3cc(F)c(-c4nnn[nH]4)cc32)C1 (stereo not drawn) [Example 103] | 141 |  | 0.042
O=C(Nc1ccc(-c2cc3cc(F)c(-c4nnn[nH]4)cc3n2C2CCC2)cc1)C(=O)Nc1ccc(N2CCC3(CCC(O)CC3)CC2)cc1 [Example 108] | 30 | 3-4 times | 0.167
CC1(n2c(-c3ccc(NC(=O)C(=O)Nc4ccc(N5CCC6(CCC(O)CC6)CC5)cc4)cc3)cc3cc(F)c(-c4nnn[nH]4)cc32)CCC1 [Example 109] | 61 |  | 0.107
CC1(O)CCC2(CCN(c3ccc(NC(=O)C(=O)Nc4ccc(-c5cc6cc(F)c(-c7nnn[nH]7)cc6n5C5CCC5)cc4)cc3)CC2)CC1 [Example 110] | 77 |  | 0.109
CC1(O)CCC2(CCN(c3ccc(NC(=O)C(=O)Nc4ccc(-c5cc6cc(F)c(-c7nnn[nH]7)cc6n5C5(C)CCC5)cc4)cc3)CC2)CC1 [Example 111] | 94 |  | 0.105
O=C(Nc1ccc(-c2cc3cc(F)c(-c4nnn[nH]4)cc3n2C2CCC2)cc1)C(=O)Nc1ccc(N2CC3CC(O)CC3C2)cc1 (stereo not drawn) [Example 116] | 63 |  | 0.092
CC1(O)CC2CN(c3ccc(NC(=O)C(=O)Nc4ccc(-c5cc6cc(F)c(-c7nnn[nH]7)cc6n5C5CCC5)cc4)cc3)CC2C1 (stereo not drawn) [Example 117] | 71 |  | 0.104
Cn1cc(-c2ccc(NC(=O)C(=O)Nc3ccc(-c4cc5cc(F)c(-c6noc(=O)[nH]6)cc5n4C4CCC4)cc3)cc2)cn1 [Example 123] | 141 |  | 0.243
Cn1cc(-c2ccc(NC(=O)C(=O)Nc3ccc(-c4cc5cc(F)c(-c6nnc(C(F)(F)F)[nH]6)cc5n4C4CCC4)cc3)cc2)cn1 [Example 124] | 716 |  | 0.661
O=C(Nc1ccc(-c2oc3cc(F)c(-c4nnn[nH]4)cc3c2C2CCC2)cc1)C(=O)Nc1ccc(N2CCC3(CCOC3)CC2)cc1 [Example 125] | 51 |  | 0.68
O=C(Nc1ccc(-c2ccsc2)cc1)C(=O)Nc1ccc(-c2cc3ccc(-c4nnn[nH]4)nc3n2C2CCC2)cc1 [Example 129] | 59 |  | 2.85
O=C(Nc1ccc(-c2ccsc2)cc1)C(=O)Nc1ccc(-c2sc3cc(F)c(-c4nnn[nH]4)cc3c2C2CCC2)cc1 [Example 133] | 69 |  | 0.688
O=C(Nc1ccc(-c2ccsc2)cc1)C(=O)Nc1ccc(-c2cc3cc(F)c(-c4nnn[nH]4)c(F)c3n2C2CCC2)cc1 [Example 134] | 69 |  | 0.334

The next lines start with results.

IC50 [1] [nM] | SHP2 IC50 times lower than control compound 11a-1 [1] | Compound | IC50 (KYSE520) [µM]
58 |  | O=C(Nc1ccc(-c2cc3cc(F)c(-c4nnn[nH]4)cc3n2C2CCC2)cc1)C(=O)Nc1ccc(N2CCC3(CC2)CC(CO)C3)cc1 [Example 96] | 0.059
48 |  | O=C(Nc1ccc(-c2cc3cc(F)c(-c4nnn[nH]4)cc3n2C2CCC2)cc1)C(=O)Nc1ccc(N2CCC3(CCC(O)C3)CC2)cc1 (stereo not drawn) [Example 100] | 0.057
23 | 3-4 times | CC1(n2c(-c3ccc(NC(=O)C(=O)Nc4ccc(N5CCC6(CCC(O)C6)CC5)cc4)cc3)cc3cc(F)c(-c4nnn[nH]4)cc32)CCC1 (stereo not drawn) [Example 101] | 0.128
72 |  | O=C(Nc1ccc(-c2cc3cc(F)c(-c4nnn[nH]4)cc3n2C2CCC2)cc1)C(=O)Nc1ccc(N2CC3COCC3C2)cc1 (stereo not drawn) [Example 114] | 0.118
45 |  | CC1(O)CC2CN(c3ccc(NC(=O)C(=O)Nc4ccc(-c5cc6cc(F)c(-c7nnn[nH]7)cc6n5C5(C)CCC5)cc4)cc3)CC2C1 (stereo not drawn) [Example 118] | 0.116
66 |  | O=C(Nc1ccc(-c2ccsc2)cc1)C(=O)Nc1ccc(-c2cc3ccc(-c4nnn[nH]4)cc3n2C2CCC2)cc1 [Example 122] | 4.36
25 |  | O=C(Nc1ccc(-c2ccsc2)cc1)C(=O)Nc1ccc(-c2oc3cc(F)c(-c4nnn[nH]4)cc3c2C2CCC2)cc1 [Example 130] | 0.422
27 |  | O=C(Nc1ccc(-c2ccsc2)cc1)C(=O)Nc1ccc(-c2cc3cc(F)c(-c4nnn[nH]4)nc3n2C2CCC2)cc1 [Example 132] | 1.1
